The values that follow come from ChEMBL document CHEMBL3853265 (Medchemcomm, 2016).

In one data set the test system is P-gp. In words: Substrate activity at p-gp (unknown origin) assessed as efflux ratio of permeability. It is filed as ADME. The note with it: human, not told.
Another data set addresses T1, Cytochrome P450 1A2 (Homo sapiens, UniProt P05177).
T1 sequence (P05177 whole entry): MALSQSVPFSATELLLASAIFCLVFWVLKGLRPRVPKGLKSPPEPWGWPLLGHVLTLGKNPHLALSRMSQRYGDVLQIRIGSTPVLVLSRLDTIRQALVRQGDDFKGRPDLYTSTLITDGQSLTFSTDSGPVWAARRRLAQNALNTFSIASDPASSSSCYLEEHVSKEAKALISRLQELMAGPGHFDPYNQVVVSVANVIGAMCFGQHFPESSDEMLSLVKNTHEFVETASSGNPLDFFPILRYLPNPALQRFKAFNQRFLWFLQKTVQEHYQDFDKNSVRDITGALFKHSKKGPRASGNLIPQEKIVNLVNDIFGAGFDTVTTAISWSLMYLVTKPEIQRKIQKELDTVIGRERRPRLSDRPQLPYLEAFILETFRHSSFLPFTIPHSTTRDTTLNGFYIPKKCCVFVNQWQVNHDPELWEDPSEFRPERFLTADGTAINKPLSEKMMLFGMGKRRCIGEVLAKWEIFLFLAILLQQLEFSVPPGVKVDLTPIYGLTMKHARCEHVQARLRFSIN
In words: Inhibition of CYP1A2 (unknown origin). It is filed as ADME.

Another data set addresses Cytochrome P450 2C9 (Homo sapiens, UniProt P11712). In words: Inhibition of CYP2C9 (unknown origin). In kind it is ADME.
A further data set addresses Cytochrome P450 2D6 (Homo sapiens, UniProt P10635). In words: Inhibition of CYP2D6 (unknown origin). It is filed as ADME.
Data set [1] in a line: Volume of distribution at steady state in dog at 0.363 mg/kg, iv and 0.737 mg/kg, po. As to conditions: in vivo, read-out: Vdss. In kind it is ADME, organism-based, Canis lupus familiaris.
A short description of data set [2]: Drug metabolism in dog liver microsomes. It is filed as ADME, Canis lupus familiaris. A general note: Liver microsomes are vesicles of endoplasmic reticulum, rich in cytochrome P450 enzymes.
Data set [3] can be described thus: Drug metabolism in rat hepatocytes assessed as monooxidation and glucuronidation. In kind it is ADME, cell-based, Hepatocyte.
The test system of data set [4] is Rattus norvegicus. In words: Toxicity in Wistar Han rat assessed as increase in lymphocyte counts at >= 30 mg/kg/day, po administered for 14 days. It is filed as organism-based. As to conditions: in vivo, 336 h.
For data set [5], the system named is Rattus norvegicus. In words: Toxicity in Wistar Han rat assessed as increase in liver weight at >= 30 mg/kg/day, po administered for 14 days. In kind it is organism-based. As to conditions: in vivo, 336 h.
Data set [6] is described as follows: Toxicity in dog assessed as increase in body temperature at 100 mg/kg, po administered as single dose. In kind it is organism-based, Canis lupus familiaris. The note with it: in vivo.
Data set [7] can be described thus: Toxicity in dog assessed as increase in body temperature at 10 mg/kg, po administered as single dose measured up to 3 days post dose. In kind it is organism-based, Canis lupus familiaris. As to conditions: in vivo, 72 h.
Data set [8] is described as follows: Toxicity in dog assessed as increase in heart rate at 30 mg/kg, po administered as single dose. It is filed as organism-based, Canis lupus familiaris. The note with it: in vivo.
The nature of data set [9]: Unbound Cmax in dog at 30 mg/kg, po administered as single dose. As to conditions: in vivo. In kind it is ADME, organism-based, Canis lupus familiaris.
A short description of data set [10]: Unbound clearance in dog at 1 mg/kg, iv and 3 mg/kg, po. In kind it is ADME, organism-based, Canis lupus familiaris. The note with it: in vivo.
Data set [11] can be described thus: Half life in dog at 1 mg/kg, iv and 3 mg/kg, po. The note with it: in vivo. In kind it is ADME, organism-based, Canis lupus familiaris.
Data set [12] in a line: Volume of distribution at steady state in dog at 1 mg/kg, iv and 3 mg/kg, po. It is filed as ADME, organism-based, Canis lupus familiaris. As to conditions: in vivo, read-out: Vdss.
In data set [13] the test system is Rattus norvegicus. In words: Toxicity in Wistar Han rat at <= 100 mg/kg/day, po administered for 14 days by macroscopic analysis. It is filed as organism-based. As to conditions: in vivo, 336 h.
The nature of data set [14]: Average plasma concentration in Wistar Han rat at 100 mg/kg, po administered as single dose measured on day 14. The note with it: in vivo. In kind it is ADME, organism-based.

Sequence of Cytochrome P450 2C9 (P11712 whole entry): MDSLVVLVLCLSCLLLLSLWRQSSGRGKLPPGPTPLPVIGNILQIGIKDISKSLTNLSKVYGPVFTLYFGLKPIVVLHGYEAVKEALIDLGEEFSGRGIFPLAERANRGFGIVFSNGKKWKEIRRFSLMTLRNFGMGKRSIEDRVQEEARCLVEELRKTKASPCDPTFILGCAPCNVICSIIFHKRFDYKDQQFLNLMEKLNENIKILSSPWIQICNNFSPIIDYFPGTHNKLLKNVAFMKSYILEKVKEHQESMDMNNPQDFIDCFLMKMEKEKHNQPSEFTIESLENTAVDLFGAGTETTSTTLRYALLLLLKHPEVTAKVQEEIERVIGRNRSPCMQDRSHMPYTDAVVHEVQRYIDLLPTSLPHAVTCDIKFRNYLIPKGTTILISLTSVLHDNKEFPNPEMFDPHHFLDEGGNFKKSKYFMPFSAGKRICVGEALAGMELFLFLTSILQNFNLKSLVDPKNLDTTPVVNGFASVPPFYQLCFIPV
Sequence of Cytochrome P450 2D6 (P10635 whole entry): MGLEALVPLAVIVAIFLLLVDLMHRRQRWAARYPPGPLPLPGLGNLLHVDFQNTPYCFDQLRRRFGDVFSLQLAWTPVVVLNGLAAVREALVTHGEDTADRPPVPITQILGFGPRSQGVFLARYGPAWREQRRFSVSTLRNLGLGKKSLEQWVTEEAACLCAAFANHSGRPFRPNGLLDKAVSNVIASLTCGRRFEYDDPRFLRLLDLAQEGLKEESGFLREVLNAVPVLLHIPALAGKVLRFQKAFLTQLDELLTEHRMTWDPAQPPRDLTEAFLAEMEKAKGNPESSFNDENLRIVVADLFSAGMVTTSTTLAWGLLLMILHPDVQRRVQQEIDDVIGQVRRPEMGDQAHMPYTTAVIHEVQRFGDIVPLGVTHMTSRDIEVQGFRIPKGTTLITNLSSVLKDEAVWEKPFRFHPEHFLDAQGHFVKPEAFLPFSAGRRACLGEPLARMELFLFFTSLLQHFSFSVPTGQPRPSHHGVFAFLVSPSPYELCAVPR

`O=S(=O)(Nc1ccc(C(F)(F)F)nc1)c1ccccc1C(F)(F)F`: the efflux ratio in the data set with P-gp stood at 1.1. The values for the IC50 at Cytochrome P450 1A2, against Cytochrome P450 2C9 and at Cytochrome P450 2D6 were > 30 µM, 1.1 µM and > 30 µM, respectively. The Vd in [1] amounted to 0.12 L/kg. Also, the results for the Drug metabolism entry in [2] and in data set [3] were “Metabolite_Notdetected” and “Metabolite_Detected”, respectively. The Activity entry in the data set on Rattus norvegicus [4] was “Non-Toxic”; with Rattus norvegicus [5], “Non-Toxic”; in data set [6] it was “Toxic”; in data set [7], “Toxic”; in data set [8], “Toxic”. Also, the fCmax in data set [9] is 3.754 µM.
`O=S(=O)(Nc1cncc(C(F)(F)F)c1)c1ccccc1C(F)(F)F`: in data set [10], the CL free was determined as 17.5 mL/min/kg. The compound also had a half-life in data set [11] of 2.4 h. Further, the Vd in data set [12] came out at 0.18 L/kg. Besides, the Activity result with Rattus norvegicus [13] is recorded as “Non-Toxic”. Further, in [14], the Cave amounted to 807 nM.

By efflux ratio is commonly meant a quotient of directional permeabilities that is used to spot active efflux. As usually defined, the IC50 is the midpoint of a concentration-inhibition curve. One may read the half-life as how long it takes for the measured level to halve. A lower half-life goes with rapid decline.
